# In patent US4216164A, “Ureide inhibitors of connective tissue destruction” (American Cyanamid Company, priority 1978, dated 1980):
# Where “and” joins values, the source holds several entries; their conditions need not be identical. Equal entries are not always repeated. Structures can show the parent of a compound that is named as a salt.
# Tests used:
# corneal ulceration = conditions: human; cited from earlier work
# corneal ulcerations = conditions: alkali burned rabbit; directly applied to corneal ulcerations; cited from earlier work
# [1] = biological target: T1, human skin fibroblast collagenase (Homo sapiens, UniProt P03956); assay: Collagenase Assay, Test Code 006; format: biochemical; conditions: test conc.: 30 μg./ml.
# T1 construct: endogenous in cells; host or cells: human skin fibroblasts
# T1 sequence (P03956 100-469): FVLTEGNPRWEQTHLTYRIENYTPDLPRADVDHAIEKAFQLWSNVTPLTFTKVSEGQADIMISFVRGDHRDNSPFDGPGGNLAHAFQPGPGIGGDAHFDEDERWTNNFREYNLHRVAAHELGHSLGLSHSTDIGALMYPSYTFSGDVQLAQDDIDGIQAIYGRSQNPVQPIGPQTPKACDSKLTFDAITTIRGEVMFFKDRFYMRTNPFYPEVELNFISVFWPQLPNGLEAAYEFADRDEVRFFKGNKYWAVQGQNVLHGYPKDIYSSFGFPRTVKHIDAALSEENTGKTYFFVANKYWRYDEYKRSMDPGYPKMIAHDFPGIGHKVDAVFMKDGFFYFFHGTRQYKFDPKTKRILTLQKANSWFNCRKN
# Description: (i) Collagenase Assay--Test Code 006
# In a typical assay (total volume of 0.45 ml.), 100 μl. of the activated enzyme was added to the ^14 C-labeled collagen fibrils (250 μl.) followed by 100 μl. of 50 mM cacodylate, pH 7.4, containing 5 mM calcium chloride. After incubation at 37° C. for 16 hours, the tubes were centrifuged in a Beckman microfuge for five minutes at full speed. An aliquot (200 μl.) of the supernatant, representing collagenase digestion products of the fibril, was assayed for radioactivity. The effect of the test compound on collagen degradation by collagenase was examined as follows:
# Appropriate blanks and trypsin controls were run in parallel.
# [2] = biological target: T2, Gingival Crevicular Fluid Collagenase (Homo sapiens, UniProt P22894); assay: Crevicular Fluid Assay; format: biochemical; conditions: diseased crevicular fluid + 30 mcg./ml. compound; control 66 ± 9; p<0.0005
# T2 construct: from tissue; host or cells: gingival crevicular fluid of a volunteer with periodontal disease
# From the text: (§1) An active inhibitor would inhibit the degradation of the collagen fibril; (iii) Leukocyte Neutral Proteases Inhibitor Assay--This test measures the ability of neutral proteases derived from human leukocytes to degrade radiolabeled proteoglycans entrapped in polyacrylamide beads.
# (ii) Crevicular Fluid Assay
# Effect of Test Compounds on Gingival Crevicular Fluid Collagenase
# Since studes by Golub, et al., Dental Res., 55, 1049 (1976) have shown that the crevicular collagenase plays a major role in the degradation of collagen in periodontal tissue, the effect of test compounds on collagen degradation by this system was examined. A volunteer with diagnosed periodontal disease was used. […] After one minute, the filter paper strip was removed and the volume of the gingival crevicular fluid was measured with the aid of the Periotron (Harco Electronics, Ltd., Winnipeg, Canada). The volume of the fluid gathered from the crevice by the filter paper strip is translated by a unique transducer onto a digital readout screen. […] After reading on the meter, 1 μl. of trypsin (1.5 μg./ml.) was added to the filter paper (to activate any latent collagenase present) and after five minutes at room temperature 1 μl. of aprotinin was added. […] The tubes were centrifuged as described above and a 200 μl. aliquot of the clear supernatant was assayed for radioactivity.
# [3] = tested on: neutral proteases derived from human leukocytes; assay: Leukocyte Neutral Proteases Inhibitor Assay; format: biochemical; conditions: for Percent Inhibition of Neutral Protease Activity ^3 H: ^3 H label; for Percent Inhibition of Neutral Protease Activity ^35 S: ^35 S label
# Description: as §1
# (iii) Leukocyte Neutral Proteases Inhibitor Assay
# Assays of Leukocyte Neutral Proteases Using ^3 H/^35 S Labeled Proteoglycans
# This assay system contained (total volume of 1 ml.) 60 mM Tris-Cl, pH 7.4; 2.5 mM calcium chloride; 2.5 mM magnesium chloride; 2 mg. (dry weight) of polyacrylamide beads entrapped with labeled proteoglycans, and an aliquot of the leukocyte neutral protease preparation. The reaction mixture was incubated at 37° C. for 30 minutes in a shaking water bath. The reaction was terminated by the addition of 0.2 ml. of 5% HCl (v/v). After five minutes at room temperature, the mixture was centrifuged and the clear supernatant (0.6 ml.) was assayed for radioactivity. To determine the effect of the test compounds on degradation of proteoglycans by neutral proteases, various concentrations of the compounds were added to the reaction mixture. Appropriate blanks were included.
# [4] = tested on: fibroblast collagenase and leukocyte neutral protease; assay: Enzymatic Degradation of Collagen of Human Gingiva; format: biochemical; conditions: 37° C., 36 hours, control 102.3
# Description: The test compounds are able to inhibit the degradation of collagen of gingival tissue. Dried pieces of human gingiva were incubated at 37° C. for 36 hours with fibroblast collagenase and leukocyte neutral protease in the presence of test compound (30 and 50 μg./ml.). Antibiotics were present to prevent bacterial growth. After incubation, the residual tissue was hydrolyzed in 6 N hydrochloric acid and the hydroxyproline content (collagen) was determined. When collagenase and neutral protease were added to human gingiva, approximately 100 μg of collagen/mg. dry tissue was digested. If the test compound was present, degradation of gingival collagen was inhibited.
# collagenase = conditions: Thromb. Res. 1977, 10(4), 605-11; cited from earlier work
# T2 sequence (P22894 101-467): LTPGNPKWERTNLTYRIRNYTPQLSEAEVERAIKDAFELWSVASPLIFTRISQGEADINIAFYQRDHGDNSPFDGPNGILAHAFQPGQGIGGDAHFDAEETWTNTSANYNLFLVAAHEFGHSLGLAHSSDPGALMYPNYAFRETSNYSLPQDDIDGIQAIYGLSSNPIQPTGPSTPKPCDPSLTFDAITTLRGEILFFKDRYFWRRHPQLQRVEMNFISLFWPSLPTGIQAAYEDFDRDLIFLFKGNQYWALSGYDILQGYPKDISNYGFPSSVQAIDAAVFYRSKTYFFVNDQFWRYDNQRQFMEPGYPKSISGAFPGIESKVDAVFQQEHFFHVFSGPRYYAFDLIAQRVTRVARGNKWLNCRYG
smiles,measurement,setting,value
CC(=O)N[C@@H](CS)C(=O)O [acetylcysteine],treatment of acute and chronic corneal ulceration,corneal ulceration,effective
same,frequency of ulceration,corneal ulcerations,reduce the frequency of ulceration
"O=C(Nc1ccc(C(=O)Nc2ccc3cc(S(=O)(=O)O)cc(O)c3c2)cc1)Nc1ccc(C(=O)Nc2ccc3cc(S(=O)(=O)O)cc(O)c3c2)cc1 [6,6'-[Ureylenebis(p-phenylenecarbonylimino)]bis[4-hydroxy-2-naphthalenesulfonic acid]tetrasodium salt]",inhibition at 30 µg/mL,[1],95%
"O=C(Nc1cccc(C(=O)Nc2ccc3cc(S(=O)(=O)O)cc(O)c3c2)c1)Nc1cccc(C(=O)Nc2ccc3cc(S(=O)(=O)O)cc(O)c3c2)c1 [6,6'-[Ureylenebis(3,1-phenylenecarbonylimino)]bis[4-hydroxy-] [6,6'-[Ureylenebis(m-phenylenecarbonylimino)]bis[4-hydroxy-2-naphthalenesulfonic acid]disodium salt]",cpm Collagen Degraded/Unit Periotron Reading,[2],16 ± 6 cpm
same,Percent Inhibition of Neutral Protease Activity ^3 H,[3]; 0.5 mcg./ml.,0%
same,Percent Inhibition of Neutral Protease Activity ^35 S,[3]; 0.5 mcg./ml.,0%
same,Percent Inhibition of Neutral Protease Activity ^3 H,[3]; 1.0 mcg./ml.,17%
same,Percent Inhibition of Neutral Protease Activity ^35 S,[3]; 1.0 mcg./ml.,31%
same,Percent Inhibition of Neutral Protease Activity ^3 H,[3]; 2.0 mcg./ml.,21%
same,Percent Inhibition of Neutral Protease Activity ^35 S,[3]; 2.0 mcg./ml.,37%
same,Percent Inhibition of Neutral Protease Activity ^3 H,[3]; 5.0 mcg./ml.,47%
same,Percent Inhibition of Neutral Protease Activity ^35 S,[3]; 5.0 mcg./ml.,74%
same,Percent Inhibition of Neutral Protease Activity ^3 H,[3]; 10.0 mcg./ml.,63%
same,Percent Inhibition of Neutral Protease Activity ^35 S,[3]; 10.0 mcg./ml.,91%
same,mcg. of Collagen degraded per mg. of dry gingiva,[4]; neutral proteases plus 30 mcg./ml. compound,60.4 mcg. per mg.
same,mcg. of Collagen degraded per mg. of dry gingiva,[4]; neutral proteases plus 50 mcg./ml. compound,27.4 mcg. per mg.
N[C@@H](CS)C(=O)O [cysteine],treatment of acute and chronic corneal ulceration,corneal ulceration,effective
Cc1cc(-c2ccc(/N=N/c3c(S(=O)(=O)O)cc4cc(S(=O)(=O)O)cc(N)c4c3O)c(C)c2)ccc1/N=N/c1c(S(=O)(=O)O)cc2cc(S(=O)(=O)O)cc(N)c2c1O [trypan blue],inhibition of the activity of collagenase,collagenase,inhibiting the activity of collagenase
O=C([O-])CN(CCN(CC(=O)[O-])CC(=O)[O-])CC(=O)[O-].[Ca+2].[Ca+2] [Calcium ethylenediaminetetraacetate],frequency of ulceration,corneal ulcerations,reduce the frequency of ulceration
"O=C(Nc1cccc(C(=O)Nc2ccc3cc(S(=O)(=O)O)cc(O)c3c2)c1)Nc1cccc(C(=O)Nc2ccc3cc(S(=O)(=O)O)cc(O)c3c2)c1 [6,6'-[Ureylenebis(3,1-phenylenecarbonylimino)]bis[4-hydroxy-] [6,6'-[Ureylenebis(m-phenylenecarbonylimino)]bis[4-hydroxy-2-naphthalenesulfonic acid]tetrasodium salt]",% Inhibition of Collagenase,[1],82% and 81%
Cc1ccc(C(=O)Nc2ccc(S(=O)(=O)O)c3cc(S(=O)(=O)O)cc(S(=O)(=O)O)c23)cc1NC(=O)c1cccc(NC(=O)Nc2cccc(C(=O)Nc3cc(C(=O)Nc4ccc(S(=O)(=O)O)c5cc(S(=O)(=O)O)cc(S(=O)(=O)O)c45)ccc3C)c2)c1 [Suramin],inhibition of the activity of collagenase,collagenase,not inhibiting the action of collagenase
"O=C(Nc1cccc(C(=O)Nc2ccc3cc(S(=O)(=O)O)cc(O)c3c2)c1)Nc1cccc(C(=O)Nc2ccc3cc(S(=O)(=O)O)cc(O)c3c2)c1 [6,6'-[Ureylenebis(m-phenylenecarbonylimino)]bis[4-hydroxy-2-naphthalenesulfonic acid]disodium salt]",inhibition at 30 µg/mL,[1],82%
